{"source": "patent US20260028423A1", "about": "“PREDICTION OF AN INCREASE OF DPP3 IN A PATIENT WITH SEPTIC SHOCK” (4TEEN4 Pharmaceuticals GmbH, priority 2022, published 2026)", "key": {"[1]": {"system": "patients with septic shock", "experiment": "AdrenOSS-2 phase II trial in patients with septic shock and elevated adrenomedullin: mortality vs placebo", "type": "in vivo, human", "conditions": "for HR 28-day all-cause mortality: vs placebo", "experimental": "AdrenOSS-2 is a double-blind, placebo-controlled, randomized, multicenter, proof of concept and dose-finding phase II clinical trial to investigate the safety, tolerability and efficacy of the N-terminal ADM antibody named Adrecizumab in patients with septic shock and elevated adrenomedullin (Geven et al. BMJ Open 2019; 9:e024475). In total, 301 patients with septic shock and bio-ADM concentration >[…] were randomized (2:1:1) to treatment with a single intravenous infusion over approximately 1 hour with either placebo (n=152), adrecizumab […]/kg (n=72) or adrecizumab […]/kg (n=77). All-cause mortality within 28 (90) days after inclusion was 25.8% (34.8%). Mean age was 68.4 years and 61% were male. For the per protocol analysis, n=294 patients remained eligible, and 14-day all-cause mortality rate was 18.5%.\nTo validate the findings from example 9 and for proof of concept, the different lower thresholds for DPP3 at baseline (day 1) were assessed for efficacy of the anti-ADM antibody (Adrecizumab) therapy in the septic shock population with high bio-ADM from the AdrenOSS-2 study cohort and patients with a DPP3 plasma value above the different lower thresholds were excluded from the analyses. Efficacy of the anti-ADM antibody therapy was specifically assessed to what concerns the mortality endpoint in the placebo and treated arms.\nThe DPP3 plasma levels in septic shock with high bio-ADM (above […]) patients (n=298) at baseline and in the following 144 h were statistically analysed with the aim of determining a DPP3 threshold at baseline to assess anti-ADM antibody therapy efficacy. Patients above the respective DPP3 plasma thresholds were excluded from the analyses. Different DPP3 plasma concentration thresholds have been applied for 28-day all-cause mortality evaluation using Kaplan-Meier plots comparing anti-ADM antibody therapy vs. placebo. The log-rank test was chosen for showing differences in mortality rates among treatment groups. Hazard ratios (HR) were calculated for each DPP3 plasma concentration threshold to estimate the reduction in mortality risk imposed by anti-ADM antibody therapy relative to placebo."}, "[2]": {"system": "patients with septic shock", "experiment": "AdrenOSS-2 phase II trial in patients with septic shock and elevated adrenomedullin: mortality vs placebo", "type": "in vivo, human"}, "[3]": {"system": "mice with CLP-induced sepsis", "conditions": "pre-treatment, cited from earlier work"}, "endotoxemic rats": {"system": "endotoxemic rats", "conditions": "pre-treatment; cited from earlier work"}, "[4]": {"conditions": "phase I study; cited from earlier work"}, "[5]": {"biological_target": "T1, Recombinant GST-tagged hDPP3 (Homo sapiens, UniProt Q9NY33)", "T1 construct": "purchased USBio (United States Biological, Salem, MA, USA)", "T1 sequence (Q9NY33 1-737)": "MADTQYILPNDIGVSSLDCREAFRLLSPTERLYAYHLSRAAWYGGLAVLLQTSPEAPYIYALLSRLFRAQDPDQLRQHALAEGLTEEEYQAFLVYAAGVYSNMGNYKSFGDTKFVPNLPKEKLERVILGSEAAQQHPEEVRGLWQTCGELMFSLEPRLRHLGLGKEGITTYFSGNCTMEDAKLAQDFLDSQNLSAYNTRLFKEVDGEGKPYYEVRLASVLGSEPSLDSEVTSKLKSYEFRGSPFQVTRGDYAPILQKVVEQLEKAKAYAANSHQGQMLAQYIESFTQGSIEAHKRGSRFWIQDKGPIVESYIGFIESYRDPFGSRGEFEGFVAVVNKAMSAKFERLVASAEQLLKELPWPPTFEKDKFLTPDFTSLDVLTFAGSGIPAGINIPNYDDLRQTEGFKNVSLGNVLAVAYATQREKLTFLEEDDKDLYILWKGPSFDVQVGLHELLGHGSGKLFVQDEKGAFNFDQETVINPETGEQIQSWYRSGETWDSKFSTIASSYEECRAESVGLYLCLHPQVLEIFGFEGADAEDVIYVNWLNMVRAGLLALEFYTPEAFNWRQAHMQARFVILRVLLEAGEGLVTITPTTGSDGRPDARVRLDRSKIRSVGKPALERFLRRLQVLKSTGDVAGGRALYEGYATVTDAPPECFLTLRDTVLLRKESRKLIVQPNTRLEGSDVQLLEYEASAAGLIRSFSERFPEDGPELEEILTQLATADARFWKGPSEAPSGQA", "experiment": "hDPP3 binding assay (labelled antibody, immobilized antigen, RLU)", "conditions": "immobilized GST-hDPP3 1 μg/well", "experimental": "To analyze the capability of DPP3/immunization peptide binding by the different antibodies and antibody clones a binding assay was performed:\nSolid phase: Recombinant GST-tagged hDPP3 (SEQ ID NO. 36) or a DPP3 peptide (immunization peptide, SEQ ID NO. 37) was immobilized onto a high binding microtiter plate surface (96-Well polystyrene microplates, Greiner Bio-One international AG, Austria, 1 μg/well in coupling buffer [50 mM Tris, 100 mM NaCl, pH7,8], 1 h at RT). After blocking with 5% bovine serum albumin, the microplates were vacuum dried.\nLabelling procedure (tracer): 100 μg (100 μl) of the different antiDPP3 antibodies (detection antibody, 1 mg/ml in PBS, pH 7.4) were mixed with 10 μl acridinium NHS-ester (1 mg/ml in acetonitrile, InVent GmbH, Germany; EP 0 353 971) and incubated for 30 min at room temperature. […] The final concentration was approx. 5-7*10^6 relative light units (RLU) of labelled compound (approx. 20 ng labelled antibody) per 200 μl. acridinium ester chemiluminescence was measured by using a Centro LB 960 luminometer (Berthold Technologies GmbH & Co. KG).\nhDPP3 binding assay: the plates were filled with 200 μl of labelled and diluted detection antibody (tracer) and incubated for 2-4 h at 2-8° C. […] Well-bound chemiluminescence was measured by using the Centro LB 960 luminometer (Berthold Technologies GmbH & Co. KG)."}, "[6]": {"biological_target": "T1, Recombinant GST-tagged hDPP3", "experiment": "hDPP3 inhibition analysis (DPP3 activity assay, Arg-Arg-βNA)", "type": "biochemical", "conditions": "25 ng/ml GST-DPP3, 10 μg antibody", "experimental": "To analyze the capability of DPP3 inhibition by the different antibodies and antibody clones a DPP3 activity assay with known procedure (Jones et al., 1982) was performed. Recombinant GST-tagged hDPP3 was diluted in assay buffer (25 ng/ml GST-DPP3 in 50 mM Tris-HCl, pH7,5 and 100 μM ZnCl2) and 200 μl of this solution incubated with 10 μg of the respective antibody at room temperature. After 1 hour of pre-incubation, fluorogenic substrate Arg-Arg-βNA (20 μl, 2 mM) was added to the solution and the generation of free βNA over time was monitored using the Twinkle LB 970 microplate fluorometer (Berthold Technologies GmbH & Co. KG) at 37° C. Fluorescence of βNA is detected by exciting at 340 nm and measuring emission at 410 nm. Slopes (in RFU/min) of increasing fluorescence of the different samples are calculated. The slope of GST-hDPP3 with buffer control is appointed as 100% activity. The inhibitory ability of a possible capture-binder is defined as the decrease of GST-hDPP3 activity by incubation with said capture-binder in percent."}, "DPP3": {"biological_target": "T2, DPP3 (Homo sapiens, UniProt Q9NY33)", "T2 construct": "from tissue; host or cells: lysate of blood cells from human EDTA-blood", "T2 sequence (Q9NY33 1-737)": "T1 sequence (Q9NY33 1-737)", "experiment": "Western Blot analysis of binding specificity in blood cell lysate", "conditions": "AK1967 as primary antibody", "experimental": "Blood cells from human EDTA-blood were washed (3× in PBS), diluted in PBS and lysed by repeated freeze-thaw-cycles. […] Dilutions of blood cell lysate (1:40, 1:80, 1:160 and 1:320) and of purified recombinant human His-DPP3 (31.25-500 ng/ml) were subjected to SDS-PAGE and Western Blot. The blots were incubated in 1.) blocking buffer (1×PBS-T with 5% skim milk powder), 2.) primary antibody solution (AK1967 1:2.000 in blocking buffer) and 3.) HRP labelled secondary antibody (goat anti mouse IgG, 1:1.000 in blocking buffer). Bound secondary antibody was detected using the Amersham ECL Western Blotting Detection Reagent and the Amersham Imager 600 UV (both from GE Healthcare)."}, "[7]": {"biological_target": "T3, native DPP3 from blood cells (Homo sapiens, UniProt Q9NY33)", "T3 construct": "from tissue; host or cells: blood cells", "T3 sequence (Q9NY33 1-737)": "T1 sequence (Q9NY33 1-737)", "experiment": "DPP3 inhibition curve (FIG. 7)", "type": "biochemical", "conditions": "against 15 ng/ml DPP3"}, "Male Wistar rats": {"system": "Male Wistar rats", "experiment": "CLP model of septic shock, sepsis-induced heart failure rats", "type": "in vivo, rat", "conditions": "vs CLP+PBS", "experimental": "Male Wistar rats (2-3 months, 300 to 400 g, group size refers to table 9) from the Centre d'élevage Janvier (France) were allocated randomly to one of three groups. All the animals were anesthetized using ketamine hydrochloride (90 mg/kg) and xylazine (9 mg/kg) intraperitoneally (i.p.). For induction of polymicrobial sepsis, cecal ligation and puncture (CLP) was performed using Rittirsch's protocol with minor modification. A ventral midline incision (1.5 cm) was made to allow exteriorization of the cecum. The cecum is then ligated just below the ileocecal valve and punctured once with an 18-gauge needle. The abdominal cavity is then closed in two layers, followed by fluid resuscitation (3 ml/100 g body of weight of saline injected subcutaneously) and returning the animal to its cage. Sham animals were subjected to surgery, without getting their cecum punctured. CLP animals were randomized between placebo and therapeutic antibody.\nThe study flow is depicted in FIG. 8. After CLP or sham surgery the animals were allowed to rest for 20 hours with free access to water and food. […] As a safety measure, hemodynamics were monitored invasively and continuously from t=0 till 3 h. […]\nGrey scale images were recorded at a depth of 2 cm. […] LVFS was calculated as LV end-diastolic diameter−LV end-systolic diameter/LV end-diastolic diameter and expressed in %. […] All parameters were measured manually. […]"}, "[8]": {"system": "isoproterenol-induced heart failure mice", "experiment": "Isoproterenol-induced heart failure in mice", "type": "in vivo, mouse", "conditions": "10 mg/kg i.v.; within the first hour after administration", "experimental": "Acute heart failure was induced in male mice at 3 months of age by two daily subcutaneous injections of 300 mg/kg of Isoproterenol, a non-selective β-adrenergic agonist (DL-Isoproterenol hydrochloride, Sigma Chemical Co) (ISO) for two days (Vergaro et al, 2016). The ISO dilution was performed in NaCl 0.9%. Isoproterenol-treated mice were randomly assigned to two groups (Table 10) and PBS or Procizumab (10 mg/kg) were injected intravenously after baseline echocardiography (Gao et al., 2011) and renal resistive index measurements (Lubas et al., 2014, Dewitte et al, 2012) were performed at day 3 (FIGS. 11 A and B). Cardiac function was assessed by echocardiography (Gao et al., 2011) and by the renal resistive index (Lubas et al., 2014, Dewitte et al, 2012) at 1 hour, 6 hours and 24 hours (FIGS. 11 A and B). The group of mice that was injected with vehicle (PBS) instead of isoproterenol was subjected to no further pharmacological treatment and served as the control group (Table 10)."}}, "note": "“Also recorded” adds a separate entry of the source. Like-named read-outs stand apart in the source and are kept apart here.", "data": [{"substance": "Adrecizumab: humanized N-terminal anti-ADM antibody; heavy chain SEQ ID NO: 32, light chain SEQ ID NO: 33", "values": [{"measurement": "28-day all-cause mortality compared to the placebo arm", "setting": "[1]; DPP3 below 30 ng/ml (n=195)", "value": "significantly reduced"}, {"measurement": "28-day all-cause mortality compared to the placebo arm", "setting": "[1]; DPP3 below 50 ng/ml", "value": "lower than the placebo arm"}, {"measurement": "28-day all-cause mortality compared to the placebo arm", "setting": "[1]; DPP3 below 50 ng/ml at baseline and continuously low (<50 ng/ml) during the next 144 h", "value": "significantly lower"}, {"measurement": "HR 28-day all-cause mortality", "setting": "[1]; baseline DPP3 threshold 22 ng/ml", "value": 0.258}, {"measurement": "HR 28-day all-cause mortality", "setting": "[1]; baseline DPP3 threshold 30 ng/ml", "value": 0.309}, {"measurement": "HR 28-day all-cause mortality", "setting": "[1]; baseline DPP3 threshold 40 ng/ml", "value": 0.568}, {"measurement": "HR 14-day mortality", "setting": "[2]; DPP3 <50 ng/mL on admission", "value": 0.426}, {"measurement": "HR 14-day mortality", "setting": "[2]; DPP3 <40", "value": 0.385}, {"measurement": "HR 14-day mortality", "setting": "[2]; DPP3 <60", "value": 0.449}, {"measurement": "HR 14-day mortality", "setting": "[2]; DPP3 <70", "value": 0.546}, {"measurement": "HR 14-day mortality", "setting": "[2]; DPP3 >50 ng/mL", "value": 1.69}, {"measurement": "HR 14-day mortality", "setting": "[2]; DPP3 >40", "value": 1.35}, {"measurement": "HR 14-day mortality", "setting": "[2]; DPP3 >60", "value": 1.62}, {"measurement": "HR 14-day mortality", "setting": "[2]; DPP3 >70", "value": 1.24}, {"measurement": "HR 28-day all-cause mortality", "setting": "[2]; baseline DPP3 threshold 50 ng/ml", "value": 0.606}, {"measurement": "7-day survival", "setting": "[3]; repeated dose administration, control 0%", "value": 40, "unit": "%"}, {"measurement": "7-day survival", "setting": "[3]; single dose, control 10%", "value": 50, "unit": "%"}, {"measurement": "renal vascular leakage", "setting": "[3]", "value": "attenuated"}, {"measurement": "renal vascular leakage", "setting": "endotoxemic rats", "value": "attenuated"}, {"measurement": "serious adverse events", "setting": "[4]", "value": "no serious adverse events were observed"}]}, {"substance": "Clone 1967: anti-DPP3 monoclonal antibody, clone 1967 of SEQ ID No.: 37 (AK1967; Procizumab); humanized chains SEQ ID No. 47 and 48", "values": [{"measurement": "hDPP3 binding [RLU]", "setting": "[5]", "value": 113.736, "unit": "RLU"}, {"measurement": "Max. inhibition of hDPP3", "setting": "[6]", "value": 70, "unit": "%"}, {"measurement": "binding specificity in lysate of blood cells", "setting": "DPP3", "value": "no other unspecific binding takes place"}, {"measurement": "IC50 of DPP3 inhibition", "setting": "[7]", "value": "about 15 ng/ml"}, {"measurement": "mortality rate", "setting": "Male Wistar rats", "value": "drastically improves; also recorded: drastically reduces"}, {"measurement": "shortening fraction", "setting": "Male Wistar rats", "value": "instant normalization; also recorded: drastically improves"}, {"measurement": "heart function (shortening fraction)", "setting": "[8]", "value": "improved; also recorded: restores heart function"}]}]}
